Results published in patent US12655141B2, “Inhibitors of notch signaling pathway and use thereof in treatment of cancers” (Cellestia Biotech AG, priority 2019, dated 2026).

Tests used:
[1] = system: NOTCH positive/driven human T cell acute lymphoblastic leukemia cell line RPMI 8402; test: Alamar blue anti-proliferative assay; format: cell-based; conditions: for IC50: Homo sapiens, RPMI 8402, RPMI8402, 72 hours, concentration range 0.01-10 μM
Procedure: (§1) Alamarblue® and PrestoBlue proliferation assays were performed to determine the growth kinetics of Notch inhibitor treated cells. Alamar Blue® and PrestoBlue consists of a cell permeable substrate resazurin. In metabolically active and proliferating cells, resazurin is converted to resorufin due to an intrinsic reducing power of live cells and produces a red fluorescence. Therefore production of resorufin serves as an indicator of the viability of the cell population.
(§2) Proliferation assays were performed by seeding 5000 cells/well in a 96 well plate. Cells were treated with DMSO or compounds for 72 hours using concentration ranges of 0.01-10 μM. Each concentration was tested in 4 replicates. To determine the growth kinetics, 10 μl of Alamar Blue® or PrestoBlue (Invitrogen) was added to each well and incubated for 4 hours. Readout was taken using Tecan F500 (Tecan) multiplate reader or Varioskan LUX (ThermoFisher) multiplate reader.
(§3) In order to determine anti-cancer potency of compounds compared to 6-(4-tert-butylphenoxy)pyridin-3-amine (described in WO2013/093885), NOTCH positive/driven human T cell acute lymphoblastic leukemia cell line RPMI 8402 was treated with selected compounds.

[2] = system: NOTCH positive/driven human T cell acute lymphoblastic leukemia cell line RPMI 8402; test: PrestoBlue anti-proliferative assay; format: cell-based; conditions: for IC50: Homo sapiens, RPMI 8402, RPMI8402, 72 hours, concentration range 0.03-100 μM; for fold change compared to 6-(4-tert-butylphenoxy)pyridin-3-amine (anti-proliferative IC50): RPMI8402, 72 hours
Procedure: as §1
as §2, with “Cells were treated with DMSO or compounds for 72 hours using concentration ranges of 0.01-10 μM.” left out
as §3

cMYC [3] = test: Jess western blot of RPMI8402 protein lysates: cMYC; format: cell-based, human; conditions: RPMI8402, 1 μM, 24 hours, 37° C
Procedure: (§4) One million human NOTCH positive T-ALL cell line RPMI8402 were treated with NOTCH targeting compounds at 1 μM concentration for 24 hours. Following treatment cells were harvested and washed with 1×PBS. Total RNA and total protein lysates were extracted as described below.
(§5) Cells were lysed in RIPA buffer (50 mM Tris·Cl, pH 7.5, 150 mM NaCl, 1% nonidet P-40, 0.5% sodium deoxycholate and 0.1% SDS) for 30 minutes at 4° C. Lysed cells were centrifuged to remove the debris at 14000 rpm at 4° C. Supernatant was transferred to a new eppendorf tube. The protein concentration was determined by Bradford assay using spectrophotometer (Ultrospec 3000 pro).
(§6) Later on western blotting was carried out using Jess (ProteinSimple, biotechne). Samples containing 0.8 μg protein was denatured in loading buffer containing DTT by heating at 95° C. for 5 minutes. Samples were run on 12-230 kDa gel matrix, with incubation time for primary and secondary antibodies of 1 hour and 30 minutes, respectively. Data were analysed using Compass for SW (ProteinSimple, biotechne) software.
(§7) Total protein lysates were analysed by Jess western blot analysis using N1-ICD (cleaved and active NOTCH1 Intracellular Domain), cMYC and GAPDH specific antibodies.

[4] = system: N1-ICD (cleaved and active NOTCH1 Intracellular Domain); test: Jess western blot of RPMI8402 protein lysates: N1-ICD; format: cell-based, human; conditions: RPMI8402, 1 μM, 24 hours, 37° C
Procedure: as §4, §5, §6, §7

cMYC [5] = test: Western blot of RPMI8402 protein lysates: cMYC; format: cell-based, human; conditions: NOTCH positive leukemic cells, 1 μM, 24 hours, FIGS. 2 and 3
Procedure: as §4, §5
(§8) Initially for western blotting, 40 μg of protein were denatured in 1×SDS gel loading buffer (100 mM Tris·Cl, pH 6.8, 200 mM DTT, 4% SDS, 0.2% bromophenol, 20% glycerol) by heating at 99° C. for 5 minutes. Denatured protein samples were stored on ice until loading on to the acrylamide gel. The samples were run on 8% or 10% acrylamide gel in Tris-glycine electrophoresis buffer (25 mM Tris, 250 mM glycine, 0.1% SDS). Following separation on the acrylamide gel, protein samples were transferred on to PVDF membrane (PEQ lab, catalog number 39-3010) using transfer buffer (39 mM glycine, 48 mM Tris base, 0.037% SDS and 20% methanol).
(§9) For immunoblotting, membranes were blocked with 5% milk and incubated overnight with primary antibodies at 4° C. Membrane were washed with 1×TBST (1×TBS+0.5 tween 20) for 5 minutes (3 times) and incubated with HRP-conjugated secondary antibodies for one hour at room temperature. Signal was detected with Super Signal West chemiluminescent substrate (Thermo Scientific, catalog number 34077).
(§10) Total protein lysates were analysed by western blot analysis using N1-ICD (cleaved and active NOTCH1 Intracellular Domain), cMYC and ACTIN specific antibodies.

[6] = system: N1-ICD (cleaved and active NOTCH1 Intracellular Domain); test: Western blot of RPMI8402 protein lysates: N1-ICD; format: cell-based, human; conditions: NOTCH positive leukemic cells, 1 μM, 24 hours, FIGS. 2 and 3
Procedure: as §4, §5, §8, §9, §10

NOTCH pathway = test: Western blot, downregulation of NOTCH pathway (N1-ICD and cMYC), FIG. 2 and 3; format: cell-based, human; conditions: RPMI8402, 1 μM, 24 hours
Procedure: NOTCH positive human leukemic RPMI8402 cells were treated with 1 μM of 6-(4-tert-butylphenoxy)pyridin-3-amine and 6-([1,1′-Biphenyl]-4-yloxy)-N-methylpyridin-3-amine for 24 hours. Following treatment, total protein lysates were extracted and protein expression analysed by western blot.
NOTCH positive human leukemic RPMI8402 cells were treated with 1 μM of 6-(4-tert-butylphenoxy)pyridin-3-amine and 6-((4′-Fluoro-[1,1′-biphenyl]-4-yl)oxy)pyridin-3-amine, 6-([1,1′-Biphenyl]-4-yloxy)-4-methylpyridin-3-amine, 6-([1,1′-Biphenyl]-4-yloxy)-2-methylpyridin-3-amine and N-Methyl-6-((6-phenylpyridin-3-yl)oxy)pyridin-3-amine for 24 hours. Following treatment, total protein lysates were extracted and protein expression analysed by western blot.
as §4, §5, §8, §9

| SMILES | IC50 [1] [nM] | IC50 [2] [nM] | fold change compared to 6-(4-tert-butylphenoxy)pyridin-3-amine (anti-proliferative IC50) [2] | Percentage improvement of compounds over 6-(4-tert-Butylphenoxy)pyridin-3-amine to downregulate NOTCH target genes (protein expression): cMYC (cMYC [3]) [%] | Percentage improvement of compounds over 6-(4-tert-Butylphenoxy)pyridin-3-amine to downregulate NOTCH target genes (protein expression): N1-ICD [4] [%] | also measured |
| --- | --- | --- | --- | --- | --- | --- |
| CNc1ccc(Oc2ccc(-c3ccccc3)cc2)nc1 [Example 2, 6-([1,1′-Biphenyl]-4-yloxy)-N-methylpyridin-3-amine] | 110 | – | – | – | – | downregulation of cMYC compared to 6-(4-tert-butylphenoxy)pyridin-3-amine (cMYC [5]): stronger downregulation; downregulation of N1-ICD compared to 6-(4-tert-butylphenoxy)pyridin-3-amine [6]: stronger downregulation; potency in downregulating NOTCH pathway compared with 6-(4-tert-butylphenoxy)pyridin-3-amine (NOTCH pathway): enhanced potency |
| CNc1ccc(Oc2ccc(-c3ccccc3)cc2)c(F)c1 [Example 6, 4-([1,1′-Biphenyl]-4-yloxy)-3-fluoro-N-methylaniline] | 700 | – | – | – | – | – |
| Nc1ccc(OCCc2cc(Oc3ccc(N)cn3)ccc2-c2ccccc2)cc1 [Example 22, 6-((2-(2-(4-Aminophenoxy)ethyl)-[1,1′-biphenyl]-4-yl)oxy)pyridin-3-amine] | 920 | – | – | – | – | – |
| CNc1ccc(Oc2ccc(-c3ccc(F)cc3)cc2)nc1 [Example 27, 6-((4′-Fluoro-[1,1′-biphenyl]-4-yl)oxy)-N-methylpyridin-3-amine] | – | 200 | (3.7x) | 183 | 197 | – |
| Cc1cc(Oc2ccc(-c3ccc(F)cc3)cc2)ncc1N [Example 29, 6-((4′-Fluoro-[1,1′-biphenyl]-4-yl)oxy)-4-methylpyridin-3-amine] | – | – | – | 183 | 192 | – |
| Cc1nc(Oc2ccc(-c3ccccc3)nc2)ccc1N [Example 30, 2-Methyl-6-((6-phenylpyridin-3-yl)oxy)pyridin-3-amine] | – | 450 | (1.6x) | 159 | 159 | – |
| Cc1cc(Oc2ccc(-c3ccccc3)nc2)ncc1N [Example 31, 4-Methyl-6-((6-phenylpyridin-3-yl)oxy)pyridin-3-amine] | – | – | – | 108 | 110 | – |
| Cc1nc(Oc2ccc(-c3nccs3)cc2)ccc1N [Example 35, 2-Methyl-6-(4-(thiazol-2-yl)phenoxy)pyridin-3-amine] | – | < 30 | (>24x) | 130 | 132 | – |
| Cc1cc(Oc2ccc(-c3nccs3)cc2)ncc1N [Example 36, 4-Methyl-6-(4-(thiazol-2-yl)phenoxy)pyridin-3-amine] | – | 50 | (14.8x) | – | – | – |
| Cc1ccccc1-c1ccc(Oc2ccc(N)c(C)n2)cc1C [Example 37, 6-((2,2′-Dimethyl-[1,1′-biphenyl]-4-yl)oxy)-2-methylpyridin-3-amine] | – | – | – | 138 | 151 | – |
| Nc1ccc(Cc2ccc(-c3ccc(F)cc3)cc2)cc1 [Example 59, 4-((4′-Fluoro-[1,1′-biphenyl]-4-yl)methyl)aniline] | – | – | – | 154 | 149 | – |

The next lines start with results.

| IC50 [1] [nM] | IC50 [2] [nM] | fold change compared to 6-(4-tert-butylphenoxy)pyridin-3-amine (anti-proliferative IC50) [2] | SMILES | Percentage improvement of compounds over 6-(4-tert-Butylphenoxy)pyridin-3-amine to downregulate NOTCH target genes (protein expression): cMYC (cMYC [3]) [%] | Percentage improvement of compounds over 6-(4-tert-Butylphenoxy)pyridin-3-amine to downregulate NOTCH target genes (protein expression): N1-ICD [4] [%] | also measured |
| --- | --- | --- | --- | --- | --- | --- |
| 740 | 740 | (1X) x | CC(C)(C)c1ccc(Oc2ccc(N)cn2)cc1 [6-(4-tert-butylphenoxy)pyridin-3-amine, reference compound] | 100 | 100 | fold change compared to 6-(4-tert-butylphenoxy)pyridin-3-amine (anti-proliferative IC50) ([1]; RPMI8402, 72 hours): (1X) x |
| 170 | – | – | Nc1ccc(Oc2ccc(-c3ccccc3)cc2)cc1 [Example 7, 4-([1,1′-Biphenyl]-4-yloxy)aniline] | – | – | – |
| 110 | – | – | Cc1nc(Oc2ccc(-c3ccccc3)cc2)ccc1N [Example 8, 6-([1,1′-Biphenyl]-4-yloxy)-2-methylpyridin-3-amine] | – | – | downregulation of cMYC compared to 6-(4-tert-butylphenoxy)pyridin-3-amine (cMYC [5]): stronger downregulation; downregulation of N1-ICD compared to 6-(4-tert-butylphenoxy)pyridin-3-amine [6]: stronger downregulation; potency in downregulating NOTCH pathway compared with 6-(4-tert-butylphenoxy)pyridin-3-amine (NOTCH pathway): enhanced potency |
| – | < 30 | (>24x) | Cc1nc(Oc2ccc(-c3ccc(F)cc3)cc2)ccc1N [Example 28, 6-((4′-Fluoro-[1,1′-biphenyl]-4-yl)oxy)-2-methylpyridin-3-amine] | 170 | 173 | – |
| – | 500 | (1.5x) | Cc1nc(Oc2ccc(-c3cncs3)cc2)ccc1N [Example 32, 2-Methyl-6-(4-(thiazol-5-yl)phenoxy)pyridin-3-amine] | 133 | 136 | – |
| – | < 30 | (>24x) | Cc1cc(Oc2ccc(-c3cncs3)cc2)ncc1N [Example 33, 4-Methyl-6-(4-(thiazol-5-yl)phenoxy)pyridin-3-amine] | 130 | 132 | – |
| – | 150 | (4.9x) | CNc1ccc(Oc2ccc(-c3cncs3)cc2)nc1 [Example 34, N-Methyl-6-(4-(thiazol-5-yl)phenoxy)pyridin-3-amine] | 115 | 114 | – |
